Assays:
Assay type in all cases: cell-based
A. baumannii ATCC 19606 = experiment: Checkerboard assay (MIC, FICI)
Experimental: (§1) The FICI of β,β-Dim–colistin combination was determined by a checkerboard assay. Briefly, two-fold serial dilutions of β,β-Dim and colistin were prepared in a 96-well plate. After incubation at 37 °C for 18 h with bacterial suspension (10^6 CFU/mL), OD600 values were measured. FICI = (MICβ,β-Dim in combination/MICβ,β-Dim) + (MICcolistin in combination/MICcolistin). The synergistic effect of β,β-Dim with other antibiotics was measured in the same way. Synergy was considered to be an FICI ≤ 0.5.

E. coli 13f4(mcr-1) = experiment: Checkerboard assay (MIC, FICI)
Experimental: as §1

E. coli ATCC 25922 = experiment: Checkerboard assay (MIC, FICI)
Experimental: as §1

[1] = system: E. coli BW25113-184-mcr-1; experiment: Checkerboard assay (MIC, FICI)
Experimental: as §1

E. coli BW25113-184 = experiment: Checkerboard assay (MIC, FICI)
Experimental: as §1

[2] = system: E. coli BW25113-pmrAD82N(pmrA); experiment: Checkerboard assay (MIC, FICI)
Experimental: as §1

[3] = system: E. coli BW25113-pmrBR93P(pmrB); experiment: Checkerboard assay (MIC, FICI)
Experimental: as §1

E. coli ZJ71(mcr-1) = experiment: Checkerboard assay (MIC, FICI)
Experimental: as §1

E. coli pHSG299-mcr-3 = experiment: Checkerboard assay (MIC, FICI)
Experimental: as §1

K. pneumoniae 109(mcr-8) = experiment: Checkerboard assay (MIC, FICI)
Experimental: as §1

K. pneumoniae 126(mcr-8) = experiment: Checkerboard assay (MIC, FICI)
Experimental: as §1

[4] = system: K. pneumoniae 197(mcr-1、blaNDM); experiment: Checkerboard assay (MIC, FICI)
Experimental: as §1

K. pneumoniae 20(mcr-1) = experiment: Checkerboard assay (MIC, FICI)
Experimental: as §1

[5] = system: K. pneumoniae 251(mgrB、phoP、pmrA、blaKPC); experiment: Checkerboard assay (MIC, FICI)
Experimental: as §1

[6] = system: K. pneumoniae 29(mcr-8、pmrB、blaNDM); experiment: Checkerboard assay (MIC, FICI)
Experimental: as §1

[7] = system: K. pneumoniae 492(mcr-1、blaNDM); experiment: Checkerboard assay (MIC, FICI)
Experimental: as §1

[8] = system: K. pneumoniae 57(mcr-9、blaNDM); experiment: Checkerboard assay (MIC, FICI)
Experimental: as §1

[9] = system: K. pneumoniae 650(mgrB、phoP、pmrA、blaKPC); experiment: Checkerboard assay (MIC, FICI)
Experimental: as §1

[10] = system: K. pneumoniae 667(phoP、pmrA、blaKPC); experiment: Checkerboard assay (MIC, FICI)
Experimental: as §1

K. pneumoniae ATCC 13883 = experiment: Checkerboard assay (MIC, FICI)
Experimental: as §1

P. aeruginosa 9(mcr-1) = experiment: Checkerboard assay (MIC, FICI)
Experimental: as §1

P. aeruginosa PAO1 = experiment: Checkerboard assay (MIC, FICI)
Experimental: as §1

[11] = system: S. Typhimurium 9891(mcr-1); experiment: Checkerboard assay (MIC, FICI)
Experimental: as §1

[12] = system: S. Typhimurium ATCC 14028; experiment: Checkerboard assay (MIC, FICI)
Experimental: as §1

[13] = system: K. pneumoniae, E. coli, Salmonella, P. aeruginosa, and A. baumannii; experiment: Checkerboard assay, panel of tested strains (summary statements)
Experimental: as §1

K. pneumoniae 667 = experiment: Bacterial growth curves; details: β,β-Dim 4 µg/mL, colistin 0.5 µg/mL, alone or combined; 24 h
Experimental: Overnight cultures of K. pneumoniae 667 and E. coli 13f4 were diluted to 10^6 CFU/mL; then, β,β-Dim (4 μg/mL), colistin (0.5 or 2 μg/mL), and their combination were co-incubated with bacterial suspensions in a 96-well plate. OD600 values were monitored hourly over a 24 h period.

[14] = Escherichia coli, read-out: MIC of β,β-Dim
[15] = Escherichia coli, BW25113, read-out: MIC of β,β-Dim
[16] = Klebsiella pneumoniae, read-out: MIC of β,β-Dim

CC(C)=CC[C@H](OC(=O)C=C(C)C)C1=CC(=O)c2c(O)ccc(O)c2C1=O [β,β-Dim, β,β-dimethylacrylalkannin]
MIC of β,β-Dim [Combination] (A. baumannii ATCC 19606; 19606, with colistin): 4 µg/mL | MIC (A. baumannii ATCC 19606; Acinetobacter baumannii, ATCC19606, read-out: MIC of β,β-Dim): > 128 µg/mL | MIC of β,β-Dim [Combination] (E. coli 13f4(mcr-1); 13f4, with colistin): 4 µg/mL | MIC (E. coli 13f4(mcr-1); [14]): > 128 µg/mL | MIC of β,β-Dim [Combination] (E. coli ATCC 25922; 25922, with colistin): 2 µg/mL | MIC (E. coli ATCC 25922; Escherichia coli, ATCC25922, read-out: MIC of β,β-Dim): > 128 µg/mL | MIC of β,β-Dim [Combination] ([1]; BW25113-184-mcr-1, with colistin): 4 µg/mL | MIC [1, 15]: > 128 µg/mL | MIC of β,β-Dim [Combination] (E. coli BW25113-184; BW25113-184, with colistin): 2 µg/mL | MIC (E. coli BW25113-184; [15]): > 128 µg/mL | MIC of β,β-Dim [Combination] ([2]; BW25113-pmrAD82N, with colistin): 8 µg/mL | MIC [2, 15]: > 128 µg/mL | MIC of β,β-Dim [Combination] ([3]; BW25113-pmrBR93P, with colistin): 8 µg/mL | MIC [3, 15]: > 128 µg/mL | MIC (E. coli ZJ71(mcr-1); [14]): > 128 µg/mL | MIC of β,β-Dim [Combination] (E. coli ZJ71(mcr-1); ZJ71, with colistin): 4 µg/mL | MIC (E. coli pHSG299-mcr-3; Escherichia coli, PHSG299MCR3, read-out: MIC of β,β-Dim): > 128 µg/mL | MIC of β,β-Dim [Combination] (E. coli pHSG299-mcr-3; pHSG299-mcr-3, with colistin): 8 µg/mL | MIC of β,β-Dim [Combination] (K. pneumoniae 109(mcr-8); 109, with colistin): 4 µg/mL | MIC (K. pneumoniae 109(mcr-8); [16]): > 128 µg/mL | MIC of β,β-Dim [Combination] (K. pneumoniae 126(mcr-8); 126, with colistin): 8 µg/mL | MIC (K. pneumoniae 126(mcr-8); [16]): > 128 µg/mL | MIC of β,β-Dim [Combination] ([4]; 197, with colistin): 8 µg/mL | MIC [4, 16]: > 128 µg/mL | MIC of β,β-Dim [Combination] (K. pneumoniae 20(mcr-1); 20(mcr-1), with colistin): 4 µg/mL | MIC (K. pneumoniae 20(mcr-1); [16]): > 128 µg/mL | MIC of β,β-Dim [Combination] ([5]; 251, with colistin): 4 µg/mL | MIC [5, 16]: > 128 µg/mL | MIC of β,β-Dim [Combination] ([6]; 29, with colistin): 4 µg/mL | MIC [6, 16]: > 128 µg/mL | MIC of β,β-Dim [Combination] ([7]; 492, with colistin): 2 µg/mL | MIC [7, 16]: > 128 µg/mL | MIC of β,β-Dim [Combination] ([8]; 57, with colistin): 8 µg/mL | MIC [8, 16]: > 128 µg/mL | MIC of β,β-Dim [Combination] ([9]; 650, with colistin): 8 µg/mL | MIC [9, 16]: > 128 µg/mL | MIC of β,β-Dim [Combination] ([10]; 667, with colistin): 2 µg/mL | MIC [10, 16]: > 128 µg/mL | MIC of β,β-Dim [Combination] (K. pneumoniae ATCC 13883; 13883, with colistin): 2 µg/mL | MIC (K. pneumoniae ATCC 13883; Klebsiella pneumoniae, ATCC13883, read-out: MIC of β,β-Dim): > 128 µg/mL | MIC of β,β-Dim [Combination] (P. aeruginosa 9(mcr-1); P. aeruginosa 9, with colistin): 16 µg/mL | MIC (P. aeruginosa 9(mcr-1); Pseudomonas aeruginosa, read-out: MIC of β,β-Dim): > 128 µg/mL | MIC of β,β-Dim [Combination] (P. aeruginosa PAO1; PAO1, with colistin): 2 µg/mL | MIC (P. aeruginosa PAO1; Pseudomonas aeruginosa, PAO1, read-out: MIC of β,β-Dim): > 128 µg/mL | MIC of β,β-Dim [Combination] ([11]; 9891, with colistin): 8 µg/mL | MIC ([11]; Salmonella enterica, TYPHIMURIUM, read-out: MIC of β,β-Dim): > 128 µg/mL | MIC of β,β-Dim [Combination] ([12]; 14028, with colistin): 0.5 µg/mL | MIC ([12]; Salmonella enterica, read-out: MIC of β,β-Dim): > 128 µg/mL | antibacterial activity against Gram-negative bacteria ([13]; β,β-Dim alone): did not exhibit antibacterial activity | FICI ([13]; β,β-Dim with colistin, summary over tested strains): < 0.5 | bacterial growth (growth curves) (K. pneumoniae 667): neither β,β-Dim (4 µg/mL) nor colistin (0.5 µg/mL) alone inhibited the growth

Source: article PMC12837263, “β,β-Dimethylacrylalkannin Restores Colistin Efficacy Against mcr- and TCS-Mediated Resistant Gram-Negative Bacteria via Membrane Disturbance” (Antibiotics, 2025)
